{
  "source": "patent US8679304B2",
  "about": "“Apparatus for creating bioactive solution” (priority 2008, dated 2014)",
  "origin": "cited, not measured here",
  "test_system": "Cryptosporidium oocysts",
  "conditions": "pH 7",
  "data": [
    {"smiles": "[O][Cl+][O-]", "note": "[chlorine dioxide]", "values": [
      {"measurement": "approximate CT values for 99% inactivation", "result": "~78"}
    ]}
  ]
}
